Assay results reported in patent publication US10398671B2, “Fatty acid formulations and methods of use thereof” (Children's Hospital & Research Center at Oakland, priority 2007, dated 2019).

Key:
[1] = Plasma alpha-d-tocopherol level, Patient A; assay type: in vivo, human; conditions: despite high dose supplementation
Procedure: The vit E dose was increased over several weeks and is now in the range recommended for neurological complications of vit E deficiency (100-200 mg/kg/day alpha-d-tocopherol). Sokol et al. Gastroenterology 1993; 104(6):1727-35. […] All speech therapy and occupational therapy has been phased out due to this rapid and remarkable improvement within 5 months of beginning therapy, at which point it was felt by all evaluators to no longer be necessary.

[2] = cited from earlier work
global apraxia/dyspraxia = assay: Case study Patient A: clinical observation of speech, coordination, tone and sensory symptoms; assay type: in vivo, human; conditions: for speech clarity and energy level/stamina: coenzyme Q 100 mg/day, vitamin C 250 mg/day and alpha-lipoic acid 300 mg/day added together to regimen, within 1 week
Procedure: They were placed on omega 3/6/9 fatty acid therapy.
In addition Vitamin K (to prevent adverse effect of vitamin K antagonism by high dose vitamin E), a complete multi-vitamin combination (with selenium, zinc and high B-complex and additional fat soluble vitamins) was also added to the daily regimen.

## Cc1c(C)c2c(c(C)c1O)CC[C@@](C)(CCC[C@H](C)CCC[C@H](C)CCCC(C)C)O2 [alpha-d-tocopherol]
[1]
  change of plasma levels of alpha-d-tocopherol: did not change

## O=C(O)CCCCC1CCSS1 (stereo not drawn) [lipoic acid, α-lipoic acid]
[2]
  pKa: 4.7
Global apraxia/dyspraxia
  speech clarity and energy level/stamina: increased clarity of speech and improved energy level/stamina

## Polyenylphosphatidylcholine
Global apraxia/dyspraxia; 3 grams/day, within a week of supplementation
  stearrhea (fat absorption): decreased in stearrhea

## COC1=C(OC)C(=O)C(C/C=C(\C)CC/C=C(\C)CC/C=C(\C)CC/C=C(\C)CC/C=C(\C)CC/C=C(\C)CC/C=C(\C)CC/C=C(\C)CC/C=C(\C)CCC=C(C)C)=C(C)C1=O [coenzyme Q, 2,3-dimethoxy-5-methyl-6-polyprenyl-1,4-benzoquinone]
Global apraxia/dyspraxia
  speech clarity and energy level/stamina: increased clarity of speech and improved energy level/stamina

## O=C1O[C@H]([C@@H](O)CO)C(O)=C1O [vitamin C, ascorbic acid]
Global apraxia/dyspraxia
  speech clarity and energy level/stamina: increased clarity of speech and improved energy level/stamina

## C[C@]12C=CC(=O)C=C1CC[C@@H]1[C@@H]2C(=O)C[C@@]2(C)[C@H]1CC[C@]2(O)C(=O)CO [prednisone]
Global apraxia/dyspraxia; oral, used for allergic reactions and asthma exacerbations triggered by food allergy
  speech, coordination and behavior: improvement in speech, coordination and behavior

## C[C@@H]1[C@H](O)[C@@H](C)/C=C/C=C/CC/C=C/C=C/C=C/C=C/C(O[C@H]2O[C@H](C)[C@@H](O)[C@H](N)[C@@H]2O)CC2O[C@](O)(CC(O)C(O)CCC(O)CC(O)CC(O)CC(=O)O[C@H]1C)CC(O)C2C(=O)O (some centres unmarked) [nystatin]
Global apraxia/dyspraxia
  neurologic benefits: Further neurologic benefits
